Literature values, collected in patent US9603775B2, “Delamination resistant pharmaceutical glass containers containing active pharmaceutical ingredients” (Corning Incorporated, priority 2013, dated 2017).

Legend:
[1] = system: IL-12 and IL-23 mediated signaling and cytokine cascades; conditions: in vitro models

Compound | effect on antigen presentation (26S proteasome) | effect on IL-12 and IL-23 mediated signaling and cytokine cascades [1]
CC(C)C[C@H](NC(=O)[C@H](Cc1ccccc1)NC(=O)c1cnccn1)B(O)O [bortezomib, [(1R)-3-methyl-1-[[(2S)-1-oxo-3-phenyl-2-[(pyrazinylcarbonyl)amino]propyl]amino]butyl]boronic acid] | inhibited in a dose dependent manner | 
ustekinumab: human IgG1κ monoclonal antibody that binds the p40 subunit of IL-12 and IL-23 cytokines |  | disrupt IL-12 and IL-23 mediated signaling and cytokine cascades
